Source: ChEMBL document CHEMBL3822370, “Identification and Development of 2,3-Dihydropyrrolo[1,2-a]quinazolin-5(1H)-one Inhibitors Targeting Bromodomains within the Switch/Sucrose Nonfermenting Complex” (J Med Chem, 2016)
Active and inactive are the calls of the source. The rule behind the calls is not given here.

How the values were obtained:
Protein polybromo-1 [1] = target: T1, Protein polybromo-1 (Homo sapiens, UniProt Q86U86)
Description: Binding affinity to His6-tagged human recombinant PB1 bromodomain isoform 5 expressed in Escherichia coli BL21(DE3)-R3-pRARE2 cells assessed as change in melting temperature at 10 uM by SyproOrange dye based DSF thermal shift assay

[2] = target: T2, SWI/SNF-related matrix-associated actin-dependent regulator of chromatin subfamily A member 4 (Homo sapiens, UniProt P51532); assay: Binding affinity to His6-tagged human recombinant SMARCA4 bromodomain expressed in Escherichia coli BL21(DE3)-R3-pRARE2 cells assessed as change in melting temperature at 10 uM by SyproOrange dye based DSF thermal shift assay
[3] = target: SWI/SNF-related matrix-associated actin-dependent regulator of chromatin subfamily A member 2 (Homo sapiens) (UniProt P51531); assay: Binding affinity to His6-tagged human recombinant SMARCA2A bromodomain expressed in Escherichia coli BL21(DE3)-R3-pRARE2 cells assessed as change in melting temperature at 10 uM by SyproOrange dye based DSF thermal shift assay
[4] = target: SWI/SNF-related matrix-associated actin-dependent regulator of chromatin subfamily A member 2 (Homo sapiens) (UniProt P51531); assay: Binding affinity to His6-tagged human recombinant SMARCA2B bromodomain expressed in Escherichia coli BL21(DE3)-R3-pRARE2 cells assessed as change in melting temperature at 10 uM by SyproOrange dye based DSF thermal shift assay
Protein polybromo-1 [5] = target: T1, Protein polybromo-1; remark: listed apart in the source
Description: Binding affinity to His6-tagged human recombinant PB1 bromodomain isoform 2 expressed in Escherichia coli BL21(DE3)-R3-pRARE2 cells assessed as change in melting temperature at 10 uM by SyproOrange dye based DSF thermal shift assay

Protein polybromo-1 [6] = target: T1, Protein polybromo-1; remark: listed apart in the source
Description: Binding affinity to His6-tagged human recombinant PB1 bromodomain isoform 3 expressed in Escherichia coli BL21(DE3)-R3-pRARE2 cells assessed as change in melting temperature at 10 uM by SyproOrange dye based DSF thermal shift assay

Protein polybromo-1 [7] = target: T1, Protein polybromo-1; remark: listed apart in the source
Description: Binding affinity to His6-tagged human recombinant PB1 bromodomain 4 expressed in Escherichia coli BL21(DE3)-R3-pRARE2 cells assessed as change in melting temperature at 10 uM by SyproOrange dye based DSF thermal shift assay

[8] = target: T2, SWI/SNF-related matrix-associated actin-dependent regulator of chromatin subfamily A member 4; assay: Inhibition of His6-tagged human recombinant SMARCA4 bromodomain expressed in Escherichia coli BL21(DE3)-R3-pRARE2 cells after 30 mins using biotinylated ligand by Alpha screen displacement assay
Protein polybromo-1 [9] = target: T1, Protein polybromo-1; assay: Binding affinity to His6-tagged human recombinant PB1 bromodomain isoform 5 expressed in Escherichia coli BL21(DE3)-R3-pRARE2 cells by VP-ITC microcalorimetry
[10] = Solubility of the compound in DMSO; format: physicochemical
[11] = target: Histone acetyltransferase KAT2B (Homo sapiens) (UniProt Q92831); assay: Binding affinity to His6-tagged human recombinant PCAF bromodomain expressed in Escherichia coli BL21(DE3)-R3-pRARE2 cells assessed as change in melting temperature at 10 uM by SyproOrange dye based DSF thermal shift assay
[12] = target: Bromodomain-containing protein 4 (Homo sapiens) (UniProt O60885); assay: Binding affinity to His6-tagged human recombinant BRD4 bromodomain 1 expressed in Escherichia coli BL21(DE3)-R3-pRARE2 cells assessed as change in melting temperature at 10 uM by SyproOrange dye based DSF thermal shift assay
[13] = target: CREB-binding protein (Homo sapiens) (UniProt Q92793); assay: Binding affinity to His6-tagged human recombinant CREBBP bromodomain expressed in Escherichia coli BL21(DE3)-R3-pRARE2 cells assessed as change in melting temperature at 10 uM by SyproOrange dye based DSF thermal shift assay
[14] = target: T3, E3 ubiquitin-protein ligase TRIM33 (Homo sapiens) (UniProt Q9UPN9); assay: Binding affinity to His6-tagged human recombinant TRIM33B bromodomain expressed in Escherichia coli BL21(DE3)-R3-pRARE2 cells assessed as change in melting temperature at 10 uM by SyproOrange dye based DSF thermal shift assay
T3 sequence (whole entry): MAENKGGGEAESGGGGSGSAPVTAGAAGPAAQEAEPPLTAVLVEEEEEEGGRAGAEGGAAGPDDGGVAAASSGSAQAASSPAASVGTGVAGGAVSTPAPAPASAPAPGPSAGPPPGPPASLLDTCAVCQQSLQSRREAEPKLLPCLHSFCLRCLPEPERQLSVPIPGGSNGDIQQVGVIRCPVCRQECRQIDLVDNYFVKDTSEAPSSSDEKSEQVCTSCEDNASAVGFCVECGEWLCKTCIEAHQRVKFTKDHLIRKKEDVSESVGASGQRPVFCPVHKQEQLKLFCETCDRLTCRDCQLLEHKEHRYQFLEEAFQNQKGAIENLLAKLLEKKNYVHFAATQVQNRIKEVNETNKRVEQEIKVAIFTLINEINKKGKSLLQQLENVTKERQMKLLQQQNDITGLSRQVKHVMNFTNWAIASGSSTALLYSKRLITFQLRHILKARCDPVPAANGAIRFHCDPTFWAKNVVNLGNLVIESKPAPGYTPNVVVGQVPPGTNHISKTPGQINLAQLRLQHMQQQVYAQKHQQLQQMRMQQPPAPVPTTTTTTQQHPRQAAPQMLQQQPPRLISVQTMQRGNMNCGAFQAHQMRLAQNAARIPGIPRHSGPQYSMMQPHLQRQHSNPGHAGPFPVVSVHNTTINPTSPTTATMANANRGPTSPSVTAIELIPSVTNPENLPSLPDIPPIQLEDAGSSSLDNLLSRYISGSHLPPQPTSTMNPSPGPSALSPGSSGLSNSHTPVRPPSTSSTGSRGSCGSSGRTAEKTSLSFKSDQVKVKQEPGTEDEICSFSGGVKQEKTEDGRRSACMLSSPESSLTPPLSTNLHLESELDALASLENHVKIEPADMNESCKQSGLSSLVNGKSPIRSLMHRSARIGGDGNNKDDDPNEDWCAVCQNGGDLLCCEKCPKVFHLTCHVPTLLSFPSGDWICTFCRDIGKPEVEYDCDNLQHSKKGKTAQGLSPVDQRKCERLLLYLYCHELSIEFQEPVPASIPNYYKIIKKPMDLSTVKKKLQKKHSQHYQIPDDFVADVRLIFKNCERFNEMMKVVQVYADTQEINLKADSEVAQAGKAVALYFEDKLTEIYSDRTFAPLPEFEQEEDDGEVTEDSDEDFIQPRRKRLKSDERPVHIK

[15] = target: SWI/SNF-related matrix-associated actin-dependent regulator of chromatin subfamily A member 2 (Homo sapiens) (UniProt P51531); assay: Inhibition of GFP-fused N-terminal full length human recombinant Wild type SMARCA2 transfected in human U2OS cells assessed as displacement of SMARCA2 from chromatin by measuring FRAP recovery time at 1 to 5 uM by laser scanning inverted microscopy relative to control; format: cell-based
[16] = target: T2, SWI/SNF-related matrix-associated actin-dependent regulator of chromatin subfamily A member 4; assay: biochemical
Description: Binding affinity to His6-tagged human recombinant SMARCA4 bromodomain expressed in Escherichia coli BL21(DE3)-R3-pRARE2 cells by VP-ITC microcalorimetry

T2 sequence (P51532 whole entry): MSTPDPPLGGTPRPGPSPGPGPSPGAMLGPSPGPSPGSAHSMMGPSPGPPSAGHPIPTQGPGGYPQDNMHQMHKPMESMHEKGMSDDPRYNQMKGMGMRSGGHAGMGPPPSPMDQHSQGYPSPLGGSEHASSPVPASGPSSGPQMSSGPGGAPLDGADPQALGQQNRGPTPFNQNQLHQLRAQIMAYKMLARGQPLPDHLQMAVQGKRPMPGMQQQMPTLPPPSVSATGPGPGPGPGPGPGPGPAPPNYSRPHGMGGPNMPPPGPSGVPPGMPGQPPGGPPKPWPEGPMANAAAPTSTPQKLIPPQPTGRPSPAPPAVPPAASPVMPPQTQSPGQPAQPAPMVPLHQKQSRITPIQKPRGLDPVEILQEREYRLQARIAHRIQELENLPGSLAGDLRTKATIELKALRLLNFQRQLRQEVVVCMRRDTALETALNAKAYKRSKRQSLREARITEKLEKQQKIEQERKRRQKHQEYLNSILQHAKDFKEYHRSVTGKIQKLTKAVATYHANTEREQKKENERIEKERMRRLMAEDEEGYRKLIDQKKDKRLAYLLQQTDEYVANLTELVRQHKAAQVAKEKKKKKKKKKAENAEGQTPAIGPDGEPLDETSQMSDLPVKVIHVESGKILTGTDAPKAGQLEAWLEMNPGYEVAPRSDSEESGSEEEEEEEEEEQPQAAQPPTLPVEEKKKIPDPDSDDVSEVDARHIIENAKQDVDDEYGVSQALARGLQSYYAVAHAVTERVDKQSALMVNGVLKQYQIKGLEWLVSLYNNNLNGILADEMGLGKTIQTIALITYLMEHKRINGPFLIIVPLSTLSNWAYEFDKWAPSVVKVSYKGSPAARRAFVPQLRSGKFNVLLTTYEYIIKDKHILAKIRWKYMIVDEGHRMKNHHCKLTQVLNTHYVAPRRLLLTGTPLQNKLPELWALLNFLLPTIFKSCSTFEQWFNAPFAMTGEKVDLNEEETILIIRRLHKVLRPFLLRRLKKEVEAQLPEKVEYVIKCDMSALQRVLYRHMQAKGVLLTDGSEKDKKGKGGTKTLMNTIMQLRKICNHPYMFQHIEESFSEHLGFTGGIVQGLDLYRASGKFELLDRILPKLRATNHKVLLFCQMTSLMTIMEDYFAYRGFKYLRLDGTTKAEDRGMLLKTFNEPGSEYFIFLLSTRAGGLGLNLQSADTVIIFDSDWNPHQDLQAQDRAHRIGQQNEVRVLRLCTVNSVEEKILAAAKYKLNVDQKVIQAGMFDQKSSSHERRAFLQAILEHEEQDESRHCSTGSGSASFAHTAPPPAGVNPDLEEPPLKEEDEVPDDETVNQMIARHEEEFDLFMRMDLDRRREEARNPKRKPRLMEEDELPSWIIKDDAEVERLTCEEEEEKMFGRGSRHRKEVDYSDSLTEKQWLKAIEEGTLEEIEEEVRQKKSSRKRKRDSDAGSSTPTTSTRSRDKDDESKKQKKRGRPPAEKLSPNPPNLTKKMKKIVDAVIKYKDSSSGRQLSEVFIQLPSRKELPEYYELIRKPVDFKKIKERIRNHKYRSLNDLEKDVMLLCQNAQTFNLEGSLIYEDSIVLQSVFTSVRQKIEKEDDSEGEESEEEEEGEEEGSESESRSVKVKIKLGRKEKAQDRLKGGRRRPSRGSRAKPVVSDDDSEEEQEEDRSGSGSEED
T1 sequence (Q86U86 whole entry): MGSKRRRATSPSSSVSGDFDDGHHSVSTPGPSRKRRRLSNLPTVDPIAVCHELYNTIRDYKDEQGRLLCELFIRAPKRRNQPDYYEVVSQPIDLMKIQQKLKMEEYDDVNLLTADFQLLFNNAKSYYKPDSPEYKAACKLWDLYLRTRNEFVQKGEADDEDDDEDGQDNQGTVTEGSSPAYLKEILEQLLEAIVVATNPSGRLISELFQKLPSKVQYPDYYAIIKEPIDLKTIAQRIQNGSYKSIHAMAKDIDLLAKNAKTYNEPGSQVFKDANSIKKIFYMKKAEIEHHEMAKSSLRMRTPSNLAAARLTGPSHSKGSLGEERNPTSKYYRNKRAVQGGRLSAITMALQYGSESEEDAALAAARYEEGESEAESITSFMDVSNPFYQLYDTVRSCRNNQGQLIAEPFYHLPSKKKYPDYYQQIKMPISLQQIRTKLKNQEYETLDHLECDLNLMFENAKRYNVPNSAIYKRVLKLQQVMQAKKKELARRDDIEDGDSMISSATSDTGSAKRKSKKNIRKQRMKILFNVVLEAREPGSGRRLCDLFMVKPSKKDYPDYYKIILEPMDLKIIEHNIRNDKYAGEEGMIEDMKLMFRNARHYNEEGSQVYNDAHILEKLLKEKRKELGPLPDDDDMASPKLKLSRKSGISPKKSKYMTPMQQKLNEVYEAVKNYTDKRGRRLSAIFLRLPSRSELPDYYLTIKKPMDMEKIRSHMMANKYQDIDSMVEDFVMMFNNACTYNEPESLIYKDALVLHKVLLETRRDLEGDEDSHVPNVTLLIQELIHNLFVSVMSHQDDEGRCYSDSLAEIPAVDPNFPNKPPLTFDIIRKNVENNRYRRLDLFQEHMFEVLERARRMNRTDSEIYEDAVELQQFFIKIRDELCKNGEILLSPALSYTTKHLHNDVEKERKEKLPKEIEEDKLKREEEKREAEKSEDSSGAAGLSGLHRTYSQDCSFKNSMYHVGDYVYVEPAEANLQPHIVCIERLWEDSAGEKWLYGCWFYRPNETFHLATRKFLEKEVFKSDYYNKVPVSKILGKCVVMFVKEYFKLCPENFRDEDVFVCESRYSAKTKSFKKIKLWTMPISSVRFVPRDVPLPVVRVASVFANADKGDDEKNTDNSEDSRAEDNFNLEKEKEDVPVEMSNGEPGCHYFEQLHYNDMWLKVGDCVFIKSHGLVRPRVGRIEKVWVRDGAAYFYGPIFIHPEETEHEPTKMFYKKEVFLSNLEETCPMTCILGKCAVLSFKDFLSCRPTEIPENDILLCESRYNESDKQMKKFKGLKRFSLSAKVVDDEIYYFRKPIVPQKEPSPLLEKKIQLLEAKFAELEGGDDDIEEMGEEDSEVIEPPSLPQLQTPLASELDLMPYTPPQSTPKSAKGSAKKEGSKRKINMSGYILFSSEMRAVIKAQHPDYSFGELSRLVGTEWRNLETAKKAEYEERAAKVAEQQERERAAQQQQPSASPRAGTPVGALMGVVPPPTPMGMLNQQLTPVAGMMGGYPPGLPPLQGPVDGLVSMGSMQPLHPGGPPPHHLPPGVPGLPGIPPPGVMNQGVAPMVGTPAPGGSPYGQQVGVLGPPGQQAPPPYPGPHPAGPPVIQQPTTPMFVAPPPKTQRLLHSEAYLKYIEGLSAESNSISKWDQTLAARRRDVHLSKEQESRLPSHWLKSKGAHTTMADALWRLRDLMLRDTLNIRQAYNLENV
Chain of SWI/SNF-related matrix-associated actin-dependent regulator of chromatin subfamily A member 2 (Homo sapiens) (P51531 whole entry, the tested form may be a part): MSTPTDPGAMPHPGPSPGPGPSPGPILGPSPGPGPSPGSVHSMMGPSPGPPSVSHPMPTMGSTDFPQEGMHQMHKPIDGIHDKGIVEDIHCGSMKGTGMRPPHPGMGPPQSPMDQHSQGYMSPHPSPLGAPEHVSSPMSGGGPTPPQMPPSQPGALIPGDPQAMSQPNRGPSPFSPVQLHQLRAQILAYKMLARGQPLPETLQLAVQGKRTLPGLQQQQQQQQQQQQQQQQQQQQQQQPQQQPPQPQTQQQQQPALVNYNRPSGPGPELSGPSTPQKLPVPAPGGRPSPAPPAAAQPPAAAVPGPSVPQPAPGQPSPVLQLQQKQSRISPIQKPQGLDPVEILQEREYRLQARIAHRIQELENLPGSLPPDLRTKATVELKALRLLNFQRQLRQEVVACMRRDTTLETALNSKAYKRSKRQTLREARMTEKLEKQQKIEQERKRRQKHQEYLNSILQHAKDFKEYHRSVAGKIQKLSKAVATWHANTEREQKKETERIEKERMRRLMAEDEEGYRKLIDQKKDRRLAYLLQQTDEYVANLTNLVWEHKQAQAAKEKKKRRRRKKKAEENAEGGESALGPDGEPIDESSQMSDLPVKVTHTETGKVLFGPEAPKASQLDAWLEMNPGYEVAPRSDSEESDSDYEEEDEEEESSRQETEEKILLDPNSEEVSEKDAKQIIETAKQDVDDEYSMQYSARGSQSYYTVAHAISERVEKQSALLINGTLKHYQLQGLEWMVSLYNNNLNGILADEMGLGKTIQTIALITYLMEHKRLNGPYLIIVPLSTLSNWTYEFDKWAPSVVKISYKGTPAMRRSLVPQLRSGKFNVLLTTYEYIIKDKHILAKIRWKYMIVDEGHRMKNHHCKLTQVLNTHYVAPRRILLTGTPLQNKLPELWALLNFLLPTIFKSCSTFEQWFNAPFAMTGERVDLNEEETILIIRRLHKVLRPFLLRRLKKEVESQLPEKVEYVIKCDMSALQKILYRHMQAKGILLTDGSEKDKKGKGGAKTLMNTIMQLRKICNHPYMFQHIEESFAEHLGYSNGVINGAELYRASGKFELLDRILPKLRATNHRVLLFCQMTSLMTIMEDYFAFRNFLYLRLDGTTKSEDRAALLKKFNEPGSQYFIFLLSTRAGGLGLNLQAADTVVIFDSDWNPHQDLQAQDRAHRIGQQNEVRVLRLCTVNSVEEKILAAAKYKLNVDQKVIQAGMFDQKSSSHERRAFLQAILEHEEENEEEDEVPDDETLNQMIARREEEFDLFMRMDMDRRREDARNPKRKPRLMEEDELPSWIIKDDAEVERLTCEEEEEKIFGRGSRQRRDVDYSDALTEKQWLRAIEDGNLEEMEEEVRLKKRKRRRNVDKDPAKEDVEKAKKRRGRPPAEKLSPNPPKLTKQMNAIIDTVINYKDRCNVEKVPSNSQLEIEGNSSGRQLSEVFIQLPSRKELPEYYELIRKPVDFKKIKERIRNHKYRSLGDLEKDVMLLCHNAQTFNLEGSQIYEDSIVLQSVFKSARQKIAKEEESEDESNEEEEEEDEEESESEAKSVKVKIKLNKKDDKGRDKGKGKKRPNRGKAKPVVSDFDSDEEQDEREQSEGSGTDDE

Structure (SMILES) | ΔTm (Protein polybromo-1 [1]) [°C] | ΔTm [2] [°C] | ΔTm [3] [°C] | ΔTm [4] [°C] | ΔTm (Protein polybromo-1 [5]) [°C] | ΔTm (Protein polybromo-1 [6]) [°C] | ΔTm (Protein polybromo-1 [7]) [°C] | also measured
CC(C)N(/C=C1\CCn2c1nc(=O)c1ccccc12)C(C)C | 1.1 | – | – | – | – | – | – | –
O=c1nc2n(c3ccccc13)CC/C2=C\N1CCOCC1 | 4.7 | – | – | – | – | – | – | –
COc1cccc2c1c(=O)nc1n2CC/C1=C\N(C)C | -0.7 | – | – | – | – | – | – | –
O=c1nc2n(c3cccc(Cl)c13)CC/C2=C\N1CCOCC1 | 7.4 | 2.7 | 2.8 | 1.7 | 1.9 | 0.4 | 0.3 | –
CN1CCCN(/C=C2\CCn3c2nc(=O)c2ccccc23)CC1 | 2.5 | – | – | – | – | – | – | IC50 [8]: 22 µM
O=c1nc2n(c3cccc(Cl)c13)CC/C2=C\C1CCCCC1 | 6.6 | 2 | 2.5 | 1.6 | 2.7 | 0.4 | 0.7 | –
CN1CCC(/C=C2\CCn3c2nc(=O)c2c(Cl)cccc23)CC1 | 6 | 1.1 | 1.4 | 1 | 1.4 | 0.7 | 0.8 | –
CCN(/C=C1\CCn2c1nc(=O)c1ccccc12)CC | 4.3 | – | – | – | – | – | – | –
CCC(/C=C1\CCn2c1nc(=O)c1c(Cl)cccc12)CC | 10.2 | 2.9 | 3.5 | 2.5 | 7.1 | 3.1 | 2.7 | K (Protein polybromo-1 [9]): 5.88 ×10⁶ /M
O=c1nc2n(c3ccccc13)CC/C2=C\N1CCCCC1 | 5 | – | – | – | – | – | – | IC50 [8]: 6.2 µM; Kd (Protein polybromo-1 [9]): 1200 nM
O=c1nc2n(c3ccccc13)CC/C2=C\N1CCCC1 | 5.8 | – | – | – | – | – | – | IC50 [8]: 9.6 µM; Kd (Protein polybromo-1 [9]): 2300 nM
CN(C)/C=C1\CCn2c1nc(=O)c1ccccc12 | 4.2 | – | – | – | – | – | – | IC50 [8]: 11 µM
O=c1nc2n(c3cccc(Cl)c13)CC/C2=C\N1CCCC1 | 6.9 | 1.4 | 2.6 | 1.3 | 1.2 | 0.2 | 0.4 | –
O=c1nc2n(c3cccc(Cl)c13)CC/C2=C\C1CCOCC1 | 8.2 | 2.8 | 3.4 | 2.3 | 3.4 | 1.6 | 1.2 | –
CN1CCN(/C=C2\CCn3c2nc(=O)c2ccccc23)CC1 | 3.5 | – | – | – | – | – | – | IC50 [8]: 7.3 µM
Cc1cccc2c1c(=O)nc1n2CC/C1=C\N(C)C | 1.4 | – | – | – | – | – | – | –
CCCN(/C=C1\CCn2c1nc(=O)c1ccccc12)CCC | 4.4 | – | – | – | – | – | – | –
O=c1nc2n(c3cccc(Cl)c13)CC/C2=C\N1CCCCC1 | 9.8 | 5.3 | 6.3 | 4.3 | 4.7 | 0.8 | 0.9 | Kd (Protein polybromo-1 [9]): 127 nM; solubility [10]: soluble
CC(C)(C)OC(=O)N1CCN(/C=C2\CCn3c2nc(=O)c2ccccc23)CC1 | 3.7 | – | – | – | – | – | – | –
CN1CCN(/C=C2\CCn3c2nc(=O)c2c(Cl)cccc23)CC1 | 10.2 | 5.4 | 6.6 | 4.2 | 4.3 | 1.3 | 1.1 | K (Protein polybromo-1 [9]): 8.09 ×10⁶ /M; Activity [11]: inactive; Activity [12]: inactive; Activity [13]: inactive; Activity [14]: inactive; inhibition [15]: Active; solubility [10]: soluble; Kd [16]: 417 nM
CN(C)/C=C1\CCn2c1nc(=O)c1c(Br)cccc12 | 6.9 | – | – | – | – | – | – | –
CCN1CCN(/C=C2\CCn3c2nc(=O)c2ccccc23)CC1 | 4.3 | – | – | – | – | – | – | IC50 [8]: 6.9 µM
CN(C)/C=C1\CCn2c1nc(=O)c1c(O)cccc12 | 3.4 | – | – | – | – | – | – | –
CCN1CCN(/C=C2\CCn3c2nc(=O)c2c(Cl)cccc23)CC1 | 9.2 | 5.6 | 4.8 | 4.1 | 4 | 1.4 | 0.9 | K (Protein polybromo-1 [9]): 7.05 ×10⁶ /M; Kd (Protein polybromo-1 [9]): 142 nM; solubility [10]: soluble
CN(C)/C=C1\CCn2c1nc(=O)c1c(F)cccc12 | 1.4 | – | – | – | – | – | – | –
CN(C)/C=C1\CCn2c1nc(=O)c1c(Cl)cccc12 | 8.4 | 3.6 | 4.4 | 2.7 | 2.2 | 1 | 0.4 | Kd (Protein polybromo-1 [9]): 137 nM
CCN(/C=C1\CCn2c1nc(=O)c1c(Cl)cccc12)CC | 7.3 | 2.8 | 3.6 | 2.5 | 2.9 | 0.2 | 0.6 | –
O=c1nc2n(c3ccccc13)CC/C2=C\c1ccoc1 | 3.7 | – | – | – | – | – | – | –
